The test system of one data set is BV-2 cells. Put plainly: Cell viability of BV-2 cells. The format is cell-based, mouse. Particulars: BV2 cells, FIGS. 7, 8B to 8D.
Data set [1] has as its system EAE (multiple sclerosis model) pain. Put plainly: Experimental Autoimmune Encephalomyelitis (EAE) model, mechanical allodynia. The format is in vivo, rat. As to conditions: both paws. The text has this:
The Experimental Autoimmune Encephalomyelitis (EAE) Model has been developed as a rat model of multiple sclerosis (Sloane, E. et al. Brain Behav. Immun. 2009, 23, 92-100). The model encompasses the injection of myelin oligodendrocyte glycoprotein (MOG) or similar glycoprotein to establish and antibody reaction that damages spinal nerve fibers leading to a progression of motor and sensory deficits. The rapid progression of deficits can be slowed by reduction of the MOG dose, enabling testing for pain responses prior to the development of hind limb paresis.
Reduced-dose MOG or saline (sham) was administered intradermally at the base of the tail. Mechanical allodynia pain testing was performed on hind left and right paws by application of Semmes-Weinstein (“von Frey”) monofilaments calibrated for different bending forces for 8 seconds to determine the paw-withdrawal threshold. On day 15 post EAE induction, after reduction in the paw-withdrawal threshold (establishment of mechanical allodynia pain), subcutaneous injection of 15 mg/kg XT-203 or saline was administered three times/day for 15 days. Behavioral data were analyzed with two-way ANOVA. For all tests, statistical significance was set to p<0.05 (*).

Data set [2] can be described thus: in vitro. As to conditions: human, cultured hepatocytes.
Data set [3] in a line: in vitro. As to conditions: rat, cultured hepatocytes.
A further data set has as its system Human hepatocytes. Put plainly: Hepatocyte elimination of parent compound. Particulars: hepatocytes.
The next data set concerns the target hERG (Homo sapiens, UniProt Q12809). Put plainly: hERG inhibition.
Data set [4] deals with acute nociceptive pain (paw incision). The experiment in a line: Rat paw incision model, subcutaneous (Study R049). As to conditions: 30 mg/kg SC TID, five days; morphine 3 mg/kg as positive control.

For orientation: half-life means how long it takes for the measured level to halve. What is called IC50 is the concentration that inhibits the measured activity by half.

Chain of hERG (Q12809 whole entry): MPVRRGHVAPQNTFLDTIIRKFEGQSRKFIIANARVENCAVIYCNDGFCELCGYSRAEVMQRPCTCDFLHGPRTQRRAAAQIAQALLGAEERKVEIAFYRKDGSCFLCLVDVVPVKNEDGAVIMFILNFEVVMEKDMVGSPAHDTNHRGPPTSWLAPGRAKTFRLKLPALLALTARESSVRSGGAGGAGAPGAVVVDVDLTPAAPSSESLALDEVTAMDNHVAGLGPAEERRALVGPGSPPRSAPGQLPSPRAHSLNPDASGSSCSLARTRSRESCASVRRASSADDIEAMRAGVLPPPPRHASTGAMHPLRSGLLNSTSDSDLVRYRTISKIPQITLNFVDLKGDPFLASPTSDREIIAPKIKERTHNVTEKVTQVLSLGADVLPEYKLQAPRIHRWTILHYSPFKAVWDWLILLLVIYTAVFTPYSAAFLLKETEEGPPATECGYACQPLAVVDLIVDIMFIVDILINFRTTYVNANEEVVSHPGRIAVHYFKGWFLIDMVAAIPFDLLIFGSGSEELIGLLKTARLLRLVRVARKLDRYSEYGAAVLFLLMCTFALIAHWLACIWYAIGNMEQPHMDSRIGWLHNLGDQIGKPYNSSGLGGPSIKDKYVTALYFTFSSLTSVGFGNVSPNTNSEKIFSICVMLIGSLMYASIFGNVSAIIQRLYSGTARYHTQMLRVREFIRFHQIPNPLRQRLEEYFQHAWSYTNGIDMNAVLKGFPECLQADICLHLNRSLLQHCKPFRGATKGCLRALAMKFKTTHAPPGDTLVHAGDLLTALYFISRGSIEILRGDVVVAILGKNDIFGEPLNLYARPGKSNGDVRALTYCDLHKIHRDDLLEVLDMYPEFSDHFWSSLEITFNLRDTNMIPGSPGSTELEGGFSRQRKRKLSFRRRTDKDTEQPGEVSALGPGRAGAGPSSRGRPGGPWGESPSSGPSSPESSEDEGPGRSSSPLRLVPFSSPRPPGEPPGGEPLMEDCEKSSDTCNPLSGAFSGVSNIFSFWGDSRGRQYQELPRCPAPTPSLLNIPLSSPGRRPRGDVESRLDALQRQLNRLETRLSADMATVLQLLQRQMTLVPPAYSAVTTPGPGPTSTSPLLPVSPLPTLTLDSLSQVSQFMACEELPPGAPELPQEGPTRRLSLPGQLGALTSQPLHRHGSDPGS
Protocol for BV-2 cells: Cell viability was also measured by a standard assay, e.g., measurement of the release of cytoplasm-resident enzymes in the tissue culture supernatant or media to detect cell loss/lysis/rupture.

As for `COc1ccc2c3c1O[C@@H]1C(F)CCC4[C@H](C2)N(CC2CC2)CC[C@]341` (some centres unmarked) [XT-203], the “cell viability” value in the data set with BV-2 cells is recorded as “good viability”. In addition, in data set [1] (15 mg/kg SC three times/day for 15 days from day 15 post EAE induction), the “pain responses in MOG-treated rats” value is “did reverse pain responses”. The “pain response in sham non-MOG rats” value in data set [1] (15 mg/kg SC three times/day for 15 days) is “no effect”. The half-life stood at 54.3 min in “in vitro [2]” and 13.2 min in the data set “in vitro [3]”. Besides, in the data set with Human hepatocytes, the “half-life in human hepatocytes compared to (+)-NTX and AK-17” value was “enhanced half-life”. The IC50 on hERG is above 100 µM. The “efficacy in rat paw incision model at the high dose” value in data set [4] is recorded as “significant efficacy”.

These data come from patent US11505556B2, “Halogenated derivatives of morphinans and uses thereof” (Xalud Therapeutics, Inc., priority 2017, dated 2022).
